Source: the NIST ThermoML archive (doi:10.1021/acs.jced.6b00718)

Assay: xn = mol fraction of the nth substance listed
Conditions: 101 kPa, Liquid; for viscosity: Falling or rolling sphere viscometry; for mass density: Vibrating tube method; for electrical conductivity: Alternating current cell with electrodes, x2 = 0.1402

CCCC#N [butanenitrile] + CCCC[N+]1(C)CCCC1.O=S(=O)([N-]S(=O)(=O)C(F)(F)F)C(F)(F)F
Conditions	mass density [kg/m3]	viscosity [mPa·s]
293.15 K, x2 = 0	791.1	0.88
293.15 K, x2 = 0.1003	965	–
293.15 K, x2 = 0.1009	–	1.51
293.15 K, x2 = 0.1987	–	2.73
293.15 K, x2 = 0.1994	1078.7	–
293.15 K, x2 = 0.3001	1160.1	–
293.15 K, x2 = 0.3002	–	6.43
293.15 K, x2 = 0.4	–	8.77
293.15 K, x2 = 0.4006	1220.4	–
293.15 K, x2 = 0.4999	1267.7	–
293.15 K, x2 = 0.5012	–	14.45
293.15 K, x2 = 0.6	1304.7	22.39
293.15 K, x2 = 0.7	1335.1	33.65
293.15 K, x2 = 0.8	1360.6	49.94
293.15 K, x2 = 0.9	–	73.01
293.15 K, x2 = 0.9007	1382	–
298.15 K, x2 = 0	786.4	0.86
298.15 K, x2 = 0.1003	960.4	–
298.15 K, x2 = 0.1009	–	1.45
298.15 K, x2 = 0.1987	–	2.53
298.15 K, x2 = 0.1994	1074.3	–
298.15 K, x2 = 0.3001	1155.4	–
298.15 K, x2 = 0.3002	–	5.72
298.15 K, x2 = 0.4	–	7.81
298.15 K, x2 = 0.4006	1216.1	–
298.15 K, x2 = 0.4999	1263.2	–
298.15 K, x2 = 0.5012	–	12.44
298.15 K, x2 = 0.6	1300	18.94
298.15 K, x2 = 0.7	1330.5	27.95
298.15 K, x2 = 0.8	1356	40.71
298.15 K, x2 = 0.9	–	58.33
298.15 K, x2 = 0.9007	1377.5	–
303.15 K, x2 = 0	781.8	0.84
303.15 K, x2 = 0.1003	955.7	–
303.15 K, x2 = 0.1009	–	1.37
303.15 K, x2 = 0.1987	–	2.37
303.15 K, x2 = 0.1994	1069.6	–
303.15 K, x2 = 0.3001	1150.8	–
303.15 K, x2 = 0.3002	–	5.13
303.15 K, x2 = 0.4	–	7.14
303.15 K, x2 = 0.4006	1211.4	–
303.15 K, x2 = 0.4999	1258.6	–
303.15 K, x2 = 0.5012	–	10.81
303.15 K, x2 = 0.6	1295.5	16.2
303.15 K, x2 = 0.7	1326	23.51
303.15 K, x2 = 0.8	1351.5	33.68
303.15 K, x2 = 0.9	–	47.41
303.15 K, x2 = 0.9007	1373	–
313.15 K, x2 = 0	772.4	0.81
313.15 K, x2 = 0.1003	946.2	–
313.15 K, x2 = 0.1009	–	1.25
313.15 K, x2 = 0.1987	–	2.07
313.15 K, x2 = 0.1994	1060.1	–
313.15 K, x2 = 0.3001	1141.4	–
313.15 K, x2 = 0.3002	–	4.22
313.15 K, x2 = 0.4	–	5.68
313.15 K, x2 = 0.4006	1202.1	–
313.15 K, x2 = 0.4999	1249.3	–
313.15 K, x2 = 0.5012	–	8.38
313.15 K, x2 = 0.6	1286.2	12.18
313.15 K, x2 = 0.7	1316.8	17.18
313.15 K, x2 = 0.8	1342.3	23.91
313.15 K, x2 = 0.9	–	32.67
313.15 K, x2 = 0.9007	1363.8	–
323.15 K, x2 = 0	763	0.78
323.15 K, x2 = 0.1003	936.8	–
323.15 K, x2 = 0.1009	–	1.17
323.15 K, x2 = 0.1987	–	1.84
323.15 K, x2 = 0.1994	1050.7	–
323.15 K, x2 = 0.3001	1132.1	–
323.15 K, x2 = 0.3002	–	3.52
323.15 K, x2 = 0.4	–	4.62
323.15 K, x2 = 0.4006	1192.9	–
323.15 K, x2 = 0.4999	1240.2	–
323.15 K, x2 = 0.5012	–	6.67
323.15 K, x2 = 0.6	1277.2	9.47
323.15 K, x2 = 0.7	1307.9	13.04
323.15 K, x2 = 0.8	1333.3	17.69
323.15 K, x2 = 0.9	–	23.59
323.15 K, x2 = 0.9007	1354.9	–
333.15 K, x2 = 0	753.5	0.75
333.15 K, x2 = 0.1003	927.3	–
333.15 K, x2 = 0.1009	–	1.12
333.15 K, x2 = 0.1987	–	1.65
333.15 K, x2 = 0.1994	1041.1	–
333.15 K, x2 = 0.3001	1122.9	–
333.15 K, x2 = 0.3002	–	3.03
333.15 K, x2 = 0.4	–	3.85
333.15 K, x2 = 0.4006	1183.7	–
333.15 K, x2 = 0.4999	1231	–
333.15 K, x2 = 0.5012	–	5.43
333.15 K, x2 = 0.6	1268.3	7.55
333.15 K, x2 = 0.7	1298.9	10.2
333.15 K, x2 = 0.8	1324.1	13.55
333.15 K, x2 = 0.9	–	17.71
333.15 K, x2 = 0.9007	1345.7	–

Conditions	electrical conductivity [S/m]
293.2 K	1.69
299.5 K	1.85
302.7 K	1.97
310 K	2.19
313.7 K	2.3
324.6 K	2.62
334 K	2.9
